Columns and labels:
skin = details: other case reports, positive patch test; cited from earlier work
skin of volar forearm = experiment: Dose-ranging study of ambroxol on TEWL, 99.9% DMSO, volar forearm; assay type: in vivo, human; details: ambroxol concentrations much lower than 2.0 mM (20 micromolar to 2.0 mM tested) in 99.9% DMSO, 10 microliter, 1 hr and 10 hr post-application
Text: Apart from these additional concentrations, conditions and the formulation (99.9% DMSO) were essentially the same as those described in Example 1, except in this experiment 10 microliter aliquots were spread and the skin region tested was on the volar forearm.
The data in FIG. 3 are presented as histograms, with only start points (at 1 hr post-application) and end-points (at 10 hr post application) shown. Two things are notable about this experiment. […] This may reflect the relative delicacy of volar forearm skin compared to skin of the upper thigh, such that the same treatment may be more or less harsh depending on the skin area treated. […] [Symbols: Open rectangles, skin TEWL measured at 1 hr post-application; hatched rectangles, skin TEWL measured at 10 hr post-application; dashed line, average TEWL value (7.8±1.1 g/m^2-hr) of untreated skin from areas adjacent to the treatment sites. All measurements were taken in quadruplicate (n=4) or quintuplicate (n=5). Shown for each value are the error bars (standard deviation of quadruplicate or quintuplicate measurements.]

human (adult male) skin = experiment: TEWL recovery after skin barrier disruption by 99.9% DMSO, upper thigh; assay type: in vivo; details: 2.0 mM ambroxol in 99.9% DMSO
Text: Dimethyl sulfoxide (DMSO) is a well-known skin permeability enhancer that is thought to act by disrupting ceramide-containing lipid bilayers of the stratum corneum and thereby compromising the permeability barrier of the skin (Agner and Serup, Clin. Expt. Dermatology 14:214 [1989]; Notman et al Biophysical Journal 93:2056 [2007]). Among its many protective functions, this lipid barrier regulates transepidermal water loss (TEWL) and is vital for the prevention of skin dryness in mammals. Thus, it is accepted by researchers in the field, that measurements of TEWL can be used to directly assay the integrity of the skin permeability barrier (Fluhr et al Experimental Dermatology 15:483 [2006]).
All experiments were conducted in a narrow range of relative humidity (30-40%) and at stable room temperatures of 18-22° C.
Transepidermal water loss (TEWL) measurements, in units of g/m^2-h, were taken at various time points after applying the solutions (at t=0) to the skin sites. TEWL values were assessed using a wireless closed-chamber system (VapoMeter, Delphin Technologies Ltd., Kuopio, Finland) that automatically calculates water evaporation rates over a small area (˜1.3 cm^2); each measurement took about 10 s (Fluhr et al Experimental Dermatology 15:483 [2006]). […] All time points were measured in duplicate or triplicate. […] The improvement in TEWL, a difference of 4-6 g/m^2-h between the two curves, then maintains itself over the remaining course of the experiment. […] Shown for each point are the error bars (standard deviation of duplicate or triplicate measurements); for some points the error bars are less visible because they were smaller than the diameter of the symbol representing that point.]

human skin = experiment: TEWL recovery after disruption by 60:40 DMSO:water formulation, upper thigh; assay type: in vivo; details: 2.0 mM ambroxol in 60:40 (v/v) DMSO:water
Experimental: 60% DMSO has been reported to be the minimum concentration of DMSO needed to disrupt ceramide-containing lipid bilayers in skin (Notman et al Biophysical Journal 93:2056 [2007]).
All time points were measured in duplicate or triplicate.
Also like in the experiment shown in FIG. 1, there is an enduring improvement of approximately 5 g/m^2-h in the rate of water loss of the ambroxol-treated skin relative to skin treated with the DMSO:water formulation alone. […] Shown for each point are the error bars (standard deviation of duplicate or triplicate measurements); for some points the error bars are less visible because they were smaller than the diameter of the symbol representing that point.]

In the case of `Nc1c(Br)cc(Br)cc1CN[C@H]1CC[C@H](O)CC1` [ambroxol, trans-4-(2-amino-3,5-dibromobenzylamino) cyclohexanol], the “adverse skin reaction in case reports” value (skin) is listed as “systemic contact dermatitis”, the “ameliorating the increase in TEWL caused by the DMSO insult” value (skin of volar forearm) is listed as “positive results” and the “improvement in TEWL, difference between ambroxol and control (DMSO only) curves” value (human (adult male) skin; 20 microliter on about 2 cm^2 upper thigh skin, maintained after the burst over the remaining course) is listed as 4-6 g/m^2-h. For the same compound, the “period of the rapid burst of skin barrier healing” value (human (adult male) skin; upper thigh) was “approximately 30 minutes”, the “time post-application of sudden drop in TEWL” value (human (adult male) skin; upper thigh) was “about 60 minutes” and the “time of the burst of TEWL improvement” value (human skin) was “in the first hour post-application”.

From patent US12390409B2 (NeueRe, LLC, priority 2018, dated 2025)
